Experimental data published in the supplement of paper PMC10307832.

Assays:
Assay in all cases: relative viability (nuclei count vs DMSO), 5 days (fraction); higher = more cells survive
[1] = compound: C1/C(=C\C2=CC=CS2)/C(=O)/C(=C/C3=CC=CS3)/C1 + Cc1cc(Nc2cc(N3CCN(C)CC3)nc(Sc3ccc(NC(=O)C4CC4)cc3)n2)n[nH]1 [Tozasertib] (partner 0.1 µM)
Procedure, shortened: (§1)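 Dosing by pin tool came one day after lung cancer cell lines were seeded in 1536-well plates, using either one drug or a fixed anchor-drug dose plus five library-drug doses (not always all listed) in √10 steps. After 5 days, nuclei were counted on 4× images. Relative viability is treated-well nuclei count divided by vehicle-well nuclei count, and values are medians of duplicate plates.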

TPCA-1 + Trametinib = compound: C1=CC(=CC=C1C2=CC(=C(S2)NC(=O)N)C(=O)N)F [TPCA-1] + CC(=O)Nc1cccc(-n2c(=O)n(C3CC3)c(=O)c3c(Nc4ccc(I)cc4F)n(C)c(=O)c(C)c32)c1 [Trametinib] (partner 0.02 µM)
Procedure, shortened: as §1

TPCA-1 + Pemetrexed = compound: C1=CC(=CC=C1C2=CC(=C(S2)NC(=O)N)C(=O)N)F [TPCA-1] + Nc1nc2[nH]cc(CCc3ccc(C(=O)N[C@@H](CCC(=O)O)C(=O)O)cc3)c2c(=O)[nH]1 [Pemetrexed] (partner 0.2 µM)
Procedure, shortened: as §1

Lestaurtinib + Dasatinib = compound: C[C@]12O[C@H](C[C@]1(O)CO)n1c3ccccc3c3c4c(c5c6ccccc6n2c5c31)CNC4=O [Lestaurtinib] + Cc1nc(Nc2ncc(C(=O)Nc3c(C)cccc3Cl)s2)cc(N2CCN(CCO)CC2)n1 [Dasatinib] (partner 0.075 µM)
Procedure, shortened: as §1

| Cell Line | relative viability ([1]; first compound 0.2 µM) | relative viability ([1]; first compound 0.6325 µM) | relative viability ([1]; first compound 2 µM) | relative viability ([1]; first compound 6.325 µM) | relative viability ([1]; first compound 20 µM) | relative viability (TPCA-1 + Trametinib; first compound 0.1265 µM) | relative viability (TPCA-1 + Trametinib; first compound 0.4 µM) | relative viability (TPCA-1 + Trametinib; first compound 1.265 µM) | relative viability (TPCA-1 + Trametinib; first compound 4 µM) | relative viability (TPCA-1 + Pemetrexed; first compound 0.1265 µM) | relative viability (TPCA-1 + Pemetrexed; first compound 0.4 µM) | relative viability (TPCA-1 + Pemetrexed; first compound 1.265 µM) | relative viability (TPCA-1 + Pemetrexed; first compound 4 µM) | relative viability (Lestaurtinib + Dasatinib; first compound 0.005 µM) | relative viability (Lestaurtinib + Dasatinib; first compound 0.01581 µM) | relative viability (Lestaurtinib + Dasatinib; first compound 0.05 µM) | relative viability (Lestaurtinib + Dasatinib; first compound 0.1581 µM) | relative viability (Lestaurtinib + Dasatinib; first compound 0.5 µM) | relative viability (TPCA-1 + Trametinib; first compound 0.04 µM) | relative viability (TPCA-1 + Pemetrexed; first compound 0.04 µM) |
| --- | --- | --- | --- | --- | --- | --- | --- | --- | --- | --- | --- | --- | --- | --- | --- | --- | --- | --- | --- | --- |
| HCC-366 | 0.105 | 0.0974 | 0.101 | 0.0969 | 0.0897 | 0.323 | 0.331 | 0.312 | 0.24 | 0.17 | 0.155 | 0.116 | 0.145 | 0.74 | 0.659 | 0.518 | 0.516 | 0.185 |  |  |
| HCC-827 | 0.414 | 0.405 | 0.441 | 0.44 | 0.503 | 0.545 | 0.527 | 0.596 | 0.421 | 0.267 | 0.281 | 0.256 | 0.276 | 0.428 | 0.323 | 0.256 | 0.318 | 0.246 | 0.545 | 0.252 |
| HOP-62 | 0.368 | 0.39 | 0.348 | 0.302 | 0.39 | 0.373 | 0.418 | 0.47 | 0.366 | 0.346 | 0.299 | 0.271 | 0.216 | 0.66 | 0.721 | 0.504 | 0.499 | 0.241 | 0.407 | 0.269 |
| LC-2-ad | 0.452 | 0.461 | 0.448 | 0.429 | 0.429 | 0.941 | 0.958 | 0.968 | 0.765 | 0.299 | 0.27 | 0.283 | 0.206 | 0.618 | 0.831 | 0.258 | 0.281 | 0.256 | 0.946 | 0.262 |
| LCLC-97TM1 | 0.239 | 0.233 | 0.227 | 0.213 | 0.195 | 0.152 | 0.163 | 0.205 | 0.204 | 0.186 | 0.163 | 0.153 | 0.154 | 0.841 | 0.853 | 0.629 | 0.753 | 0.191 | 0.208 | 0.17 |
| LCLC-103H | 0.485 | 0.47 | 0.517 | 0.465 | 0.451 | 0.671 | 0.689 | 0.725 | 0.684 | 0.426 | 0.464 | 0.398 | 0.432 | 0.474 | 0.464 | 0.405 | 0.325 | 0.224 | 0.689 | 0.522 |
| LK-2 | 0.157 | 0.155 | 0.196 | 0.168 | 0.175 | 0.535 | 0.873 | 0.659 | 0.504 |  | 0.253 | 0.232 | 0.141 | 0.296 | 0.255 | 0.241 | 0.275 | 0.158 | 0.76 | 0.268 |
| LOU-NH91 | 0.755 | 0.705 | 0.657 | 0.604 | 0.596 | 0.735 | 0.835 | 0.773 | 0.714 | 0.376 | 0.389 | 0.392 | 0.532 | 0.581 | 0.575 | 0.415 | 0.397 | 0.372 | 0.8 | 0.399 |
| LU99A | 0.287 | 0.284 | 0.266 | 0.267 | 0.301 | 0.487 | 0.553 | 0.466 | 0.284 | 0.162 | 0.196 | 0.167 | 0.198 | 0.518 | 0.528 | 0.387 | 0.298 | 0.215 | 0.66 | 0.17 |
| LXF-289 | 0.196 | 0.207 | 0.193 | 0.151 | 0.178 | 0.629 | 0.635 | 0.653 | 0.565 | 0.869 | 0.903 | 0.877 | 0.535 | 0.21 | 0.275 | 0.146 | 0.154 | 0.0882 | 0.7 | 0.883 |
| NCI-H23 | 0.374 | 0.394 | 0.373 | 0.421 | 0.323 | 0.377 | 0.362 | 0.382 | 0.358 | 0.668 | 0.72 | 0.61 | 0.235 | 0.856 | 0.911 | 0.739 | 0.847 | 0.483 | 0.535 | 0.614 |
| NCI-H322M | 0.533 | 0.439 | 0.474 | 0.454 | 0.483 | 0.455 | 0.51 | 0.449 | 0.494 | 0.481 | 0.57 | 0.566 | 0.497 | 0.233 | 0.279 | 0.277 | 0.293 | 0.339 | 0.499 | 0.614 |
| NCI-H358 | 0.101 | 0.096 | 0.112 |  | 0.11 | 0.165 | 0.157 | 0.158 | 0.0935 | 0.167 | 0.162 | 0.156 | 0.167 | 0.15 | 0.129 | 0.162 | 0.105 | 0.115 | 0.167 | 0.187 |
| NCI-H727 | 0.725 | 0.619 | 0.627 | 0.478 | 0.536 | 0.361 | 0.442 | 0.421 | 0.357 |  |  |  |  | 0.402 | 0.285 | 0.459 | 0.542 | 0.231 | 0.393 |  |
| NCI-H1563 |  |  |  |  |  |  |  |  |  | 0.508 | 0.788 | 0.642 | 0.599 | 0.487 | 0.447 | 0.499 | 0.409 | 0.362 |  | 0.799 |
| NCI-H1623 | 0.479 | 0.437 | 0.423 | 0.394 | 0.489 |  |  |  |  |  |  |  |  | 0.493 | 0.576 | 0.584 | 0.513 | 0.497 |  |  |
| NCI-H1648 | 0.598 | 0.559 | 0.467 |  | 0.4 | 0.473 | 0.378 | 0.169 | 0.582 | 0.702 | 0.769 | 0.76 | 0.809 |  |  |  |  |  | 0.505 | 0.824 |
| NCI-H1792 |  |  |  |  |  | 0.333 | 0.394 | 0.374 | 0.243 | 0.721 | 0.764 | 0.672 | 0.222 | 1.04 | 1.33 | 0.65 | 0.835 | 0.616 | 0.489 | 1.24 |
